Data published in ChEMBL document CHEMBL5537145, “Design, synthesis and evaluation of novel UDCA-aminopyrimidine hybrids as ATX inhibitors for the treatment of hepatic and pulmonary fibrosis” (Eur J Med Chem, 2024).

Molecular target: Autotaxin (Homo sapiens, UniProt Q13822)
Assay: Inhibition of human ATX in using LPC as substrate by fluorescence based microplate reader assay

Compound | IC50 [µM]
C[C@H](CCC(=O)N1CCc2nc(NCCc3ccccc3Br)ncc2C1)[C@H]1CC[C@H]2[C@@H]3[C@@H](O)C[C@@H]4C[C@H](O)CC[C@]4(C)[C@H]3CC[C@]12C | 0.0925
C[C@H](CCC(=O)N1CCc2nc(NCCc3ccccc3Cl)ncc2C1)[C@H]1CC[C@H]2[C@@H]3[C@@H](O)C[C@@H]4C[C@H](O)CC[C@]4(C)[C@H]3CC[C@]12C | 0.102
COc1ccc(CCNc2ncc3c(n2)CCN(C(=O)CC[C@@H](C)[C@H]2CC[C@H]4[C@@H]5[C@@H](O)C[C@@H]6C[C@H](O)CC[C@]6(C)[C@H]5CC[C@]24C)C3)cc1 | 0.136
C[C@H](CCC(=O)N1CCc2nc(NCc3ccc(Br)cc3)ncc2C1)[C@H]1CC[C@H]2[C@@H]3[C@@H](O)C[C@@H]4C[C@H](O)CC[C@]4(C)[C@H]3CC[C@]12C | 0.243
Cc1ccc(CCNc2ncc3c(n2)CCN(C(=O)CC[C@@H](C)[C@H]2CC[C@H]4[C@@H]5[C@@H](O)C[C@@H]6C[C@H](O)CC[C@]6(C)[C@H]5CC[C@]24C)C3)cc1 | 0.168
C[C@H](CCC(=O)N1CCc2nc(NCCc3ccccc3)ncc2C1)[C@H]1CC[C@H]2[C@@H]3[C@@H](O)C[C@@H]4C[C@H](O)CC[C@]4(C)[C@H]3CC[C@]12C | 0.0578
C[C@H](CCC(=O)O)[C@H]1CC[C@H]2[C@@H]3[C@@H](O)C[C@@H]4C[C@H](O)CC[C@]4(C)[C@H]3CC[C@]12C [URSODIOL] | 9.26

Now those with a lower IC50, led by results:

IC50 [µM] | Compound
0.0439 | C[C@H](CCC(=O)N1CCc2nc(N3CCC(c4ccccc4)CC3)ncc2C1)[C@H]1CC[C@H]2[C@@H]3[C@@H](O)C[C@@H]4C[C@H](O)CC[C@]4(C)[C@H]3CC[C@]12C
0.0402 | C[C@H](CCC(=O)N1CCc2nc(NCc3cc(Cl)cc(Cl)c3)ncc2C1)[C@H]1CC[C@H]2[C@@H]3[C@@H](O)C[C@@H]4C[C@H](O)CC[C@]4(C)[C@H]3CC[C@]12C
0.0356 | C[C@H](CCC(=O)N1CCc2nc(NCCc3ccncc3)ncc2C1)[C@H]1CC[C@H]2[C@@H]3[C@@H](O)C[C@@H]4C[C@H](O)CC[C@]4(C)[C@H]3CC[C@]12C
0.0277 | C[C@H](CCC(=O)N1CCc2nc(NCCc3cccc(Br)c3)ncc2C1)[C@H]1CC[C@H]2[C@@H]3[C@@H](O)C[C@@H]4C[C@H](O)CC[C@]4(C)[C@H]3CC[C@]12C
